The source of these data is patent US8785442B2, “Compound as antagonist of lysophosphatidic acid receptor, composition, and use thereof” (Curegenix, Inc., priority 2011, dated 2014).

Broadly, the IC50 is the concentration that gives 50% inhibition.

Structures are written as SMILES.

The first assay has as its system breast cancer cells.
Assay: not given
The conditions noted are these: animal models (Boucharaba, 2006); cited from earlier work.
Take `Cc1noc(-c2ccc(CSCCC(=O)O)cc2)c1NC(=O)OC(C)c1ccccc1Cl` (stereo not drawn) [Ki16425]: the “metastasis of breast cancer cells to bone” value is given as “inhibited”.

The subject of the next assay is highly peritoneal metastatic pancreatic cancer cell line.
Assay: not given
The conditions noted are these: highly peritoneal metastatic pancreatic cancer cell line (Yamada, 2004); cited from earlier work.
Turning to `Cc1noc(-c2ccc(CSCCC(=O)O)cc2)c1NC(=O)OC(C)c1ccccc1Cl` (stereo not drawn) [Ki16425], the “LPA-induced and ascites-induced invasion activity” value is recorded as “blocked”.

The next assay deals with T1, human LPA1 receptor (Homo sapiens, UniProt Q92633).
T1 construct: The 1.1 kb cDNA encoding the full-length coding region of human LPA1 was subcloned into the pRK5; expressed in transfected cells; host or cells: HEK293 or CHO cells
T1 sequence (Q92633 whole entry): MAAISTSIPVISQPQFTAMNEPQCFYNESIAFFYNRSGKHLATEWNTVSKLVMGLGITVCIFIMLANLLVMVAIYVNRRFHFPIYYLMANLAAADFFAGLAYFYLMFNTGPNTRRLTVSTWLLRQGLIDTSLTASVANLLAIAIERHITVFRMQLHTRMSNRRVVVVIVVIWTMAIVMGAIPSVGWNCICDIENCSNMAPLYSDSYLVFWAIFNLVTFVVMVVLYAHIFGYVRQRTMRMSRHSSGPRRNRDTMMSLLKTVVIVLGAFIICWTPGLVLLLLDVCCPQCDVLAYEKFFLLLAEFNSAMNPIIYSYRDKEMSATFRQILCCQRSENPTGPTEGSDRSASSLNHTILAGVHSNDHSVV
Description: calcium flux assay (LPA Receptor Assays). Format: cell-based.
Conditions: not given
How it is done: A cDNA encoding the human LPA1 receptor was cloned by PCR from cDNA clone obtained from commercial sources. The nucleotide sequence was determined by sequencing and confirmed to be identical to the published human LPA1 sequence (An, 1997). The 1.1 kb cDNA encoding the full-length coding region of human LPA1 was subcloned into the pRK5 […] expression vector. Transfection of the cDNA into HEK293 or CHO cells is performed by using LipofectAmine 2000 (Invitrogen, USA). The full-length cDNA fragments for human LPA2 and LPA3 were obtained by PCR similarly and subcloned into pCDNA3.1 expression vector.
Transfected cells were cultured and subjected to LPA-induced SRE-luciferase reporter gene assay by using generally described methods (An, 1997). Intact HEK293 or CHO cells expressing the recombinant human LPA1 receptor were subjected to a [3H]-LPA ligand binding assay as described (An, 1998).
All compounds presented in the patent have IC50<20 μM in the calcium flux assay.
Background: A change in cytosolic calcium serves as a functional read-out for many receptors and channels.
As to `Cc1noc(-c2ccc(NS(C)(=O)=O)cc2)c1NC(=O)OC(C)c1ccccc1Cl` (stereo not drawn) [Compound 1, 1-(2-chlorophenyl)ethyl(3-methyl-5-(4-(methylsulfonamido)phenyl)isoxazol-4-yl)carbamate], the IC50 stood at 90 nM.

`Cc1noc(-c2ccc3[nH]ncc3c2)c1NC(=O)OC(C)c1ccccc1Cl` (stereo not drawn) [Compound 3, 1-(2-chlorophenyl)ethyl(5-(1H-indazol-5-yl)-3-methylisoxazol-4-yl)carbamate]: the IC50 is 550 nM.

In the case of `Cc1noc(-c2ccc(NC(=O)C3CC3)cc2)c1NC(=O)OC(C)c1ccccc1Cl` (stereo not drawn) [Compound 7, 1-(2-chlorophenyl)ethyl(5-(4-(cyclopropanecarboxamido)phenyl)-3-methylisoxazol-4-yl)carbamate], the IC50 came to 1150 nM.

As to `Cc1noc(-c2ccc(NC(=O)CCC(=O)O)cc2)c1NC(=O)OC(C)c1ccccc1Cl` (stereo not drawn) [Compound 12, 4-((4-(4-(((1-(2-chlorophenyl)ethoxy)carbonyl)amino)-3-methylisoxazol-5-yl)phenyl)amino)-4-oxobutanoic acid], the IC50 worked out at 70 nM.

As for `Cc1noc(-c2ccc(NC(=O)c3ccccc3)cc2)c1NC(=O)OC(C)c1ccccc1Cl` (stereo not drawn) [Compound 16, 1-(2-chlorophenyl)ethyl(5-(4-benzamidophenyl)-3-methylisoxazol-4-yl)carbamate], the IC50 amounted to 2200 nM.

As to `Cc1noc(-c2ccc(NS(C)(=O)=O)cc2)c1NC(=O)O[C@H](C)c1ccccc1Cl` [Compound 19, (R)-1-(2-chlorophenyl)ethyl(3-methyl-5-(4-(methylsulfonamido)phenyl)isoxazol-4-yl)carbamate], the IC50 stood at 55 nM.

For the compound `Cc1noc(-c2ccc(NS(=O)(=O)CCC(=O)O)cc2)c1NC(=O)OC(C)c1ccccc1Cl` (stereo not drawn) [Compound 28, 3-(N-(4-(4-(((1-(2-chlorophenyl)ethoxy)carbonyl)amino)-3-methylisoxazol-5-yl)phenyl)sulfamoyl)propanoic acid], the IC50 came to 110 nM.

Regarding `Cc1noc(-c2ccc(NS(C)(=O)=O)cc2F)c1NC(=O)OC(C)c1ccccc1Cl` (stereo not drawn) [Compound 32, 1-(2-chlorophenyl)ethyl(5-(2-fluoro-4-(methylsulfonamido)phenyl)-3-methylisoxazol-4-yl)carbamate], the IC50 is 70 nM.

Take `Cc1noc(-c2ccc(NS(C)(=O)=O)cc2)c1NC(=O)OC(C)c1ccc(F)cc1Cl` (stereo not drawn) [Compound 42, 1-(2-chloro-4-fluorophenyl)ethyl(3-methyl-5-(4-(methylsulfonamido)phenyl)isoxazol-4-yl)carbamate]: the IC50 is 60 nM.

As to `Cc1noc(-c2ccc(NC(=O)CCC(=O)O)cc2F)c1NC(=O)O[C@H](C)c1ccccc1Cl` [Compound 50, (R)-4-((4-(4-(((1-(2-chlorophenyl)ethoxy)carbonyl)amino)-3-methylisoxazol-5-yl)-3-fluorophenyl)amino)-4-oxobutanoic acid], the IC50 amounted to 70 nM.
